# From BindingDB's records for patent US20250289799 (Jiangsu Yahong Meditech Co., 2025)
# Biological target: Ubiquitin carboxyl-terminal hydrolase 1/WD repeat-containing protein 48 (Homo sapiens, UniProt O94782+Q8TAF3)
# Assay: In Vitro USP1  Inhibitory Activity
# Protocol: Experimental Methods1) Preparation of 1× assay buffer: 1× assay buffer (modified Tris buffer) was prepared;2) Compound dilution: The compound was transferred to the assay plate by Echo.
# Sequence of Ubiquitin carboxyl-terminal hydrolase 1/WD repeat-containing protein 48 (O94782 whole entry): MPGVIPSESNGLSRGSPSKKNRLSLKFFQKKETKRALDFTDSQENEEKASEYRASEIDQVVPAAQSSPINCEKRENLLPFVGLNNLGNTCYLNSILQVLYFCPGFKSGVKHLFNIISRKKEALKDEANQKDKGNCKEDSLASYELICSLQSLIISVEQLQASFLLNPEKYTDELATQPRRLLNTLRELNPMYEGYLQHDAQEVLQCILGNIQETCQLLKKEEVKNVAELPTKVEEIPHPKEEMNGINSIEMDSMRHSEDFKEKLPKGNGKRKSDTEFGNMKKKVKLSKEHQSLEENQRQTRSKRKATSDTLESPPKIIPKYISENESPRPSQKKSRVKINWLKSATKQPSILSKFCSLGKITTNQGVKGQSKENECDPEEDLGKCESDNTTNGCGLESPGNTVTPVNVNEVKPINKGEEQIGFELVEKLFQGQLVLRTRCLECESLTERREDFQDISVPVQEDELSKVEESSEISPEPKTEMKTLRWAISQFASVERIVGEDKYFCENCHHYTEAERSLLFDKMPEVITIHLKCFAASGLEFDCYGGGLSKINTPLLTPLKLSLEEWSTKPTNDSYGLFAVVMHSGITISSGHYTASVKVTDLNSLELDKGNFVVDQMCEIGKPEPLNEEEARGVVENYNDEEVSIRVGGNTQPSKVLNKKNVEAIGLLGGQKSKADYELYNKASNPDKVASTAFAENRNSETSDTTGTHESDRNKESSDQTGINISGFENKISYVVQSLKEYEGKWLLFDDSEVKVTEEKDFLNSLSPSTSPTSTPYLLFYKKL
# Sequence of Ubiquitin carboxyl-terminal hydrolase 1/WD repeat-containing protein 48 (Q8TAF3 whole entry): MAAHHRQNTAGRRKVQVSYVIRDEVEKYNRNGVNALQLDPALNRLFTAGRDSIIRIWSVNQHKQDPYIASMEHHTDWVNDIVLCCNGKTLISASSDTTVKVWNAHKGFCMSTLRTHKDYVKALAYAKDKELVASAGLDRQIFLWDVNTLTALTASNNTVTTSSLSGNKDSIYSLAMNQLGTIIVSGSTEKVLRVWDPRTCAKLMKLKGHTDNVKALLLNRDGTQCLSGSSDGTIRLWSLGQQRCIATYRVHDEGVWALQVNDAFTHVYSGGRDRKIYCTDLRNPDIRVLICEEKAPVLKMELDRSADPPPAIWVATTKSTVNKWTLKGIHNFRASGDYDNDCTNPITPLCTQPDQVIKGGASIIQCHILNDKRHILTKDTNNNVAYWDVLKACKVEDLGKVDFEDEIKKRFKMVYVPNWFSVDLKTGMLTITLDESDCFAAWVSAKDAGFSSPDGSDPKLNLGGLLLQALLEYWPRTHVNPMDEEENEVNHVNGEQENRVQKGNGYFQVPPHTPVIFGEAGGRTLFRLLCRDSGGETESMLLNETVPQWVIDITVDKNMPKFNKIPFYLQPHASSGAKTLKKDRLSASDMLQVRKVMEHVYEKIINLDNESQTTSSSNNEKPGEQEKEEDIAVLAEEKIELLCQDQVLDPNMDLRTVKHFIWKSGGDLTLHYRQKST
row,Compound,IC50
1,"C#CCN(Cc1ccc(-c2nc(C(F)(F)F)cn2C)cc1)c1nc(-c2c(OC)ncnc2C2CC2)ncc1OC [US20250289799, Example 139]",5.2 nM
2,"COc1ncnc(C2CC2)c1-c1nc(NCc2ccc(-n3nc(C(F)(F)F)cc3C)cc2)c2occc2n1 [US20250289799, Example 50]",5.2 nM
3,"Cc1ncn(C(C)C)c1-c1nc(NCC23CCC(c4ccc(C(F)(F)F)cn4)(CC2)CC3)c2occc2n1 [US20250289799, Example 150]",431 nM
4,"COc1ncnc(C2CC2)c1-c1nc(NCc2ccc(-c3nc(C(F)F)cn3C)cc2)c2occc2n1 [US20250289799, Example 123]",20 nM
5,"COc1ncnc(C2CC2)c1-c1ncc2c(n1)N(Cc1ccc(-c3ccccn3)cc1)CCO2 [US20250289799, Example 9]",35 nM
6,"COc1cnn(C(C)C)c1-c1nc(NCc2ccc(-c3ccccn3)cc2)c2occc2n1 [US20250289799, Example 181]",27 nM
7,"COc1cnc(-c2c(OC)ncnc2C2CC2)nc1N(Cc1ccc(-c2nc(C(F)(F)F)cn2C)cc1)C1CC1 [US20250289799, Example 141]",9.5 nM
8,"Cc1cc(C(F)(F)F)nn1-c1ccc(CNc2nc(-c3ccccc3C3CC3)nc3ccoc23)cc1 [US20250289799, Example 174]",5.1 nM
9,"COc1cnc(-c2ccccc2C(C)C)nc1NCc1ccc(OCc2ccccn2)cc1 [US20250289799, Example 67]",5.3 nM
10,"Cn1cc(C(F)(F)F)nc1-c1ccc(CNc2nc(-c3cncnc3C3CC3)nc3ccoc23)cc1 [US20250289799, Example 196]",12 nM
11,"COc1cnc(-c2c(OC)ncnc2C2CC2)nc1N(Cc1ccc(-c2nc(C(F)(F)F)cn2C)cc1)C1CCOC1 (centres undefined) [US20250289799, Example 140]",73 nM
12,"COc1cnc(-c2c(OC)ncnc2C2CC2)nc1N(C)Cc1ccc(-c2ccccn2)cc1 [US20250289799, Example 19]",24 nM
13,"COc1cnc(-c2c(C)cnn2C(C)C)nc1N(C)Cc1ccc(-n2nc(C(F)(F)F)cc2C)cc1 [US20250289799, Example 201]",12 nM
14,"COc1cnc(-c2c(OC)ncnc2C2CC2)nc1N(O)Cc1ccc(-c2nc(C(F)(F)F)cn2C)cc1 [US20250289799, Example 204]",25 nM
15,"COc1ncnc(C2CC2)c1-c1nc(NCc2ccc(OC3CC(OC)C3)cc2)c2occc2n1 (centres undefined) [US20250289799, Example 118]",58 nM
16,"COc1cnc(-c2c(OC)ncnc2C2CC2)nc1N(C)CC12CCC(c3nc(C(F)(F)F)cn3C)(CC1)OC2 [US20250289799, Example 212]",19 nM
17,"COc1cnc(-c2c(OC)ncnc2C2CC2)nc1NCC12CCC(c3nc(C(F)(F)F)cn3C)(CC1)CC2 [US20250289799, Example 104]",8.8 nM
18,"CCOCCOc1ccc(CNc2nc(-c3ccccc3C(C)C)nc3ccoc23)cc1 [US20250289799, Example 79]",4.5 nM
19,"CCOCCOc1ccc(CNc2nc(-c3c(OC)ncnc3C3CC3)nc3ccoc23)cc1 [US20250289799, Example 117]",13.8 nM
20,"COc1cnc(-c2cccnc2C2CC2)nc1N(C)CC1CCN(c2ccccn2)CC1 [US20250289799, Example 151]",72 nM
21,"Cn1cc(C(F)F)nc1-c1ccc(CNc2nc(-c3cncnc3C3CC3)nc3ccoc23)cc1 [US20250289799, Example 197]",133 nM
22,"COc1ncnc(C2CC2)c1-c1nc(NCc2ccc(-c3ccccn3)cc2)c2[nH]ccc2n1 [US20250289799, Example 37]",51 nM
23,"COc1cnc(-c2c(OC)ncnc2C2CC2)nc1NCc1ccc(OCc2ccccn2)cc1 [US20250289799, Example 98]",144 nM
24,"COc1cnc(-c2c(Cl)cnn2C(C)C)nc1NCc1ccc(-c2ccccn2)cc1 [US20250289799, Example 162]",3.9 nM
25,"COc1cnc(-c2c(Cl)cnn2C(C)C)nc1NCc1ccc(-n2nc(C(F)(F)F)cc2C)cc1 [US20250289799, Example 165]",1.4 nM
26,"COc1cnc(-c2c(OC)ncnc2C2CC2)nc1N(C)Cc1ccc(-c2nc(C(F)(F)F)cn2C)cc1 [US20250289799, Example 8]",1.4 nM
27,"COc1ncnc(C2CC2)c1-c1nc(NCc2ccc(-c3nc(C(F)(F)F)cn3C)cc2)c2occc2n1 [US20250289799, Example 35]",9.6 nM
28,"COc1cnc(-c2cncnc2C2CC2)nc1NCc1ccc(-c2nc(C(F)F)cn2C)cc1 [US20250289799, Example 195]",243 nM

# Results, then the compound that gave them:
row,IC50,Compound
1,4.8 nM,"COc1cnc(-c2c(OC)ncnc2C2CC2)nc1NCc1ccc(-c2nc(C(F)(F)F)cn2C)cc1 [US20250289799, Example 96]"
2,9.9 nM,"CC(C)Oc1cnc(-c2ccccc2C(C)C)nc1N(C)Cc1ccc(-c2nc(C(F)(F)F)cn2C)cc1 [US20250289799, Example 71]"
3,3.3 nM,"COc1cnc(-c2c(OC)ncnc2C2CC2)nc1N(C)CC1CCN(c2nc(C(F)(F)F)cn2C)CC1 [US20250289799, Example 92]"
4,3.3 nM,"COc1cnc(-c2ccccc2C(C)C)nc1NCC1CCC(c2ccccn2)CC1 (centres undefined) [US20250289799, Example 63]"
5,19.4 nM,"CC(C)Oc1cnc(-c2ccccc2C(C)C)nc1N(C)CC1CCN(c2nc(C(F)(F)F)cn2C)CC1 [US20250289799, Example 70]"
6,2.8 nM,"COc1cnc(-c2ccccc2C(C)C)nc1N(C)Cc1ccc(-c2nc(C(F)(F)F)cn2C)cc1 [US20250289799, Example 3]"
7,4.1 nM,"COc1cc(-c2nc(C(F)(F)F)cn2C)ccc1CNc1nc(-c2c(OC)ncnc2C2CC2)ncc1OC [US20250289799, Example 100]"
8,4.5 nM,"COc1cnc(-c2ccccc2C(C)C)nc1NCc1ccc(-n2nc(C(F)(F)F)cc2C)cc1 [US20250289799, Example 7]"
9,2.9 nM,"COc1cnc(-c2c(OC)ncnc2C2CC2)nc1NCc1ccc(-c2nc(C(F)(F)F)cn2C(C)C)cc1 [US20250289799, Example 106]"
10,2.3 nM,"CC(C)c1ccccc1-c1nc(NCc2ccc(-c3nc(C(F)(F)F)cn3C)cc2)c2ncccc2n1 [US20250289799, Example 40]"
11,3.7 nM,"CC(C)c1ccccc1-c1ncc(C(F)(F)F)c(NCC2CCN(c3nc(C(F)(F)F)cn3C)CC2)n1 [US20250289799, Example 75]"
12,364 nM,"COc1cnc(-c2c(C)ncn2C(C)C)nc1NCc1ccc(-c2nc(C(F)(F)F)cn2C)cc1 [US20250289799, Example 147]"
13,3.2 nM,"COc1cnc(-c2c(C)cnn2C2CC2)nc1N(C)Cc1ccc(-c2nc(C(F)(F)F)cn2C)cc1 [US20250289799, Example 198]"
14,6.2 nM,"COc1cnc(-c2cccnc2C2CC2)nc1NCc1ccc(-n2nc(C(F)(F)F)cc2C)cc1 [US20250289799, Example 154]"
15,3.6 nM,"CC(C)Oc1cnc(-c2ccccc2C(C)C)nc1NCc1ccc(-c2nc(C(F)(F)F)cn2C)cc1 [US20250289799, Example 73]"
16,7.5 nM,"COc1cnc(-c2cccnc2C2CC2)nc1NCC1CCN(c2nc(C(F)(F)F)cn2C)CC1 [US20250289799, Example 152]"
17,12 nM,"COc1cc(CNc2nc(-c3ccccc3C3CC3)ncc2OC)ccc1-c1nc(C(F)(F)F)cn1C [US20250289799, Example 172]"
18,1.7 nM,"COc1cc(CNc2nc(-c3ccccc3C(C)C)nc3ccoc23)ccc1-c1nc(C(F)(F)F)cn1C [US20250289799, Example 82]"

row,IC50,Compound
1,0.45 nM,"CC(C)n1ncc(Cl)c1-c1nc(NCc2ccc(-c3nc(C(F)(F)F)cn3C)cc2)c2occc2n1 [US20250289799, Example 167]"
2,56 nM,"COc1cnc(-c2c(OC)cnn2C(C)C)nc1NCC1CCN(c2nc(C(F)(F)F)cn2C)CC1 [US20250289799, Example 179]"
3,15 nM,"COc1cc(CNc2nc(-c3c(OC)ncnc3C3CC3)ncc2OC)ccc1-c1nc(C(F)(F)F)cn1C [US20250289799, Example 101]"
4,94 nM,"COc1cnc(-c2c(OC)cnn2C2CC2)nc1NCC1CCN(c2nc(C(F)(F)F)cn2C)CC1 [US20250289799, Example 184]"
5,4.3 nM,"COc1cnc(-c2c(Cl)cnn2C2CC2)nc1N(C)Cc1ccc(-c2nc(C(F)(F)F)cn2C)cc1 [US20250289799, Example 191]"
6,23.5 nM,"COc1cnc(-c2c(C)noc2C(C)C)nc1NCC1CCN(c2nc(C(F)(F)F)cn2C)CC1 [US20250289799, Example 187]"
7,15 nM,"COc1ncnc(C2CC2)c1-c1ncc(OC(F)F)c(NCC2CCN(c3nc(C(F)(F)F)cn3C)CC2)n1 [US20250289799, Example 133]"
8,7.6 nM,"COc1cnc(-c2ccccc2C(C)C)nc1NCC1CCN(c2ccccn2)CC1 [US20250289799, Example 5]"
9,2.1 nM,"COc1cnc(-c2ccccc2C(C)C)nc1NCC1CCN(c2nc(C(F)(F)F)cn2C)CC1 [US20250289799, Example 65]"
10,31 nM,"COc1cnc(-c2cccc3ccn(C)c23)nc1NCc1ccc(-c2nc(C(F)(F)F)cn2C)cc1 [US20250289799, Example 143]"
11,4.8 nM,"COc1cnc(-c2c(OC)ncnc2C2CC2)nc1NCc1ccc(-c2nc(C(F)(F)F)cn2C)cc1 [US20250289799, Example 29]"
12,4.4 nM,"COc1cc(-n2nc(C(F)(F)F)cc2C)ccc1CNc1nc(-c2ccccc2C(C)C)nc2ccoc12 [US20250289799, Example 83]"
13,0.8 nM,"COc1cnc(-c2ccccc2C2CC2)nc1NCc1ccc(-c2nc(C(F)(F)F)cn2C)cc1 [US20250289799, Example 169]"
14,8.4 nM,"COc1cnc(-c2c(OC)ncnc2C2CC2)nc1NCC1CCN(c2nc(C(F)(F)F)cn2C)CC1 [US20250289799, Example 95]"
15,1260 nM,"COc1cnc(-c2ccccc2C(C)C)nc1NCc1ccc2c(c1)CN(C1CCC(=O)NC1=O)C2=O (centres undefined) [US20250289799, Example 41]"
16,6.1 nM,"COc1ncnc(C2CC2)c1-c1ncc(Cl)c(NCc2ccc(-c3nc(C(F)(F)F)cn3C)cc2)n1 [US20250289799, Example 124]"
17,9 nM,"COc1cc(CNc2nc(-c3ccccc3C(C)C)nc3ccoc23)ccc1-n1nc(C(F)(F)F)cc1C [US20250289799, Example 84]"
18,3.7 nM,"COc1cc(-c2nc(C(F)(F)F)cn2C)ccc1CNc1nc(-c2ccccc2C(C)C)nc2ccoc12 [US20250289799, Example 81]"
